Experimental data reported in patent US20140206608A1 (priority 2012, published 2014).
*1 amine or outer side, *2 acyl side, *3 side chain or, on linkers, in order; H or OH if unused. Where a SMILES comes first, the peptide text is derived from it. Side-chain parts run from the residue outwards. [ ]: non-standard residue; d: D form. The star is where a group is joined. γGlu = O=C(O)[C@H](CCC(=O)[*:2])N[*:1]; Stearoyl = CCCCCCCCCCCCCCCCCC(=O)*; Aib = CC(C)(N)C(=O)O

What was measured:
neprilysin = neprilysin (Homo sapiens, UniProt P08473); assay: in vitro; conditions: human recombinant neprilysin, pH 7.5
neprilysin, sequence (P08473 whole entry): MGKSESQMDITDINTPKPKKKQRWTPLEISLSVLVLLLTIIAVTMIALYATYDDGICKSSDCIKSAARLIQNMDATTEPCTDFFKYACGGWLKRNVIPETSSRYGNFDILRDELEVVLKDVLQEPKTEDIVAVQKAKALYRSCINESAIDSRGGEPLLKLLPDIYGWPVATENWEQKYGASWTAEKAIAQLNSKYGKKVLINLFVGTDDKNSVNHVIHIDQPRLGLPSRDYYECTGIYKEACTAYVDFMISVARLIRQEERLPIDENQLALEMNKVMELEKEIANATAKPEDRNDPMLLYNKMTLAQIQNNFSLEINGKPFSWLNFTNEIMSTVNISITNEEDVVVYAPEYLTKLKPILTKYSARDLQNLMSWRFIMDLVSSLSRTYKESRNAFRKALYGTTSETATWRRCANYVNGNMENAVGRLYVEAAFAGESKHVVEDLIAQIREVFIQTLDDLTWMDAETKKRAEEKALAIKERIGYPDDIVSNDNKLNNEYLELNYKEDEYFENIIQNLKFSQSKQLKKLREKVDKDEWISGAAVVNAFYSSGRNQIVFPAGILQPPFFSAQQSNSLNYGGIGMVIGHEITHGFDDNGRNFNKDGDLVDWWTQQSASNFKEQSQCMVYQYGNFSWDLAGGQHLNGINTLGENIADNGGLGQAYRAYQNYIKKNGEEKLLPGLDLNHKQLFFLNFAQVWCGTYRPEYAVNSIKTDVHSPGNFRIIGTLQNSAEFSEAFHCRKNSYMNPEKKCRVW
Procedure: In the experiment, GLP-1 was used as a positive control. The incubation was started by addition of the enzyme fraction to the pre-warmed buffer solution. […] The reaction was stopped by addition of ethanol. The samples were analyzed by LC-MS/MS. The percentage of biotransformation was measured by extent of depletion of the test compound in mass spectrometry. Therefore the peak area of the MRM ion signal of the 0h time point (100%) versus the incubated time points was measured. The metabolic lability is given as % of degradation.

α-chymotrypsin = assay: Enzymatic stability testing versus α-chymotrypsin; assay type: in vitro ADME; conditions: human, human recombinant α-chymotrypsin, pH 8.3; % of degradation after 120 min; 2 μM peptide, 37° C.; read-out: Lability versus enzymatic degradation, α-Chymotrypsin
Procedure: The reaction was stopped by addition of ethanol. The samples were analyzed by LC-MS/MS. […] The metabolic lability is given as % of degradation.

[1] = test system: female diabetic dbdb-mice; assay: 4 weeks of treatment on glucose, HbA1c and oral glucose tolerance in female diabetic dbdb-mice (method 4); assay type: in vivo
Procedure: 8 week old, female diabetic dbdb-mice of mean non-fasted glucose value of 14.5 mmol/l and a body weight of 37-40 g were used. Mice were individually marked and were adapted to housing conditions for at least one week.
7 days prior to study start, baseline values for non-fasted glucose and HbA1c were determined, 5 days prior to study start, mice were assigned to groups and cages (5 mice per cage, 10 per group) according to their HbA1c values to ensure even distribution of lower and higher values between groups (stratification).
Mice were treated for 4 weeks, by once daily subcutaneous administration 3 hours prior to the dark phase (6 pm to 6 am). Blood samples from a tail tip incision were obtained for HbA1c on study day 21 and oral glucose tolerance was assessed in the 4th week. Oral glucose tolerance test was done in the morning without prior extra compound administration to majorly assess the effect of chronic treatment and less of acute compound administration. Mice were fasted for 4 hours prior to oral glucose administration (2 g/kg, t=0 min). Blood samples were drawn prior to glucose administration and at 15, 30, 60, 90, 120, and 180 min thereafter. Feed was returned after the last blood sampling. Results are represented as change from baseline, glucose in mmol/l and HbA1c in %.
Statistical analyses are performed with Everstat Version 6.0 based on SAS by 1-way-ANOVA, followed by Dunnett's post-hoc test against vehicle-control. Differences are considered statistically significant at the p<0.05 level.

in vivo = conditions: female, Gottinger, minipig, plasma, sc, 0.1 mg/kg
Procedure: Female Gottinger minipigs were dosed 0.1 mg/kg subcutaneously (s.c.). Blood samples were collected after 0.25, 0.5, 1, 2, 4, 8, 24, 32, 48, 56 and 72 hours post application. Plasma samples were analyzed after protein precipitation via liquid chromatography mass spectrometry (LC/MS). PK parameters and half-life were calculated using WinonLin Version 5.2.1 (non-compartment model).

[2] = Subchronic effect on body weight in female diet-induced obese (DIO) C57BL/6NCrl mice (method 2); assay type: in vivo; conditions: 3 weeks; for Overall weight change: mean ± SEM
Procedure: Female C57BL/6NCrl mice were housed in groups in a specific pathogen-free barrier facility on a 12 h light/dark cycle with free access to water and high-fat diet. After 14 weeks on high-fat diet, mice were stratified to treatment groups (n=8), so that each group had similar mean body weight.
An aged-matched group with ad libitum access to standard chow and water was included as standard control group.
Before the experiment, mice were subcutaneously (s.c.) injected with vehicle solution and weighed for 3 days to acclimate them to the procedures.
Body weight was recorded daily.
Statistical analyses were performed with Everstat 6.0 by repeated measures two-way ANOVA and Dunnett's post-hoc analyses (glucose profile) and 1-way-ANOVA, followed by Dunnett's post-hoc test (body weight, body fat). Differences versus vehicle-treated DIO control mice were considered statistically significant at the p<0.05 level.

female NMRI-mice [3] = assay: Automated assessment of 22-hours feed intake in female NMRI-mice; assay type: in vivo
Procedure: Female NMRI-mice of a body weight between 20 and 30 g were used. Mice were adapted to housing conditions for at least one week and for at least one day single-caged in the assessment equipment, when basal data were recorded simultaneously. On the study day, test product was administered subcutaneously close to the lights-off phase (12 h lights off) and assessment of feed consumption was directly started afterwards. Assessment included continued monitoring over 22 hours, while data are processed as mean over every 30 min. Repetition of this procedure over several days was possible. Restriction of assessment to 22 hours was for practical reasons to allow for reweighing of animals, refilling of feed and water and drug administration between procedures. Results could be assessed as cumulated data over 22 hours or differentiated to 30 min intervals.
Statistical analyses were performed with Everstat 6.0 by two-way ANOVA on repeated measures and Dunnett's post-hoc analyses. Differences were considered statistically significant at the p<0.05 level.
Lights-off phase (dark phase) started 4 hours later.

[4] = molecular target: T1, human GLP-1 receptor (hGLP-1 R) (Homo sapiens, UniProt P43220); assay: cAMP response of HEK-293 cells stably expressing human GLP-1 receptor (HTRF); assay type: cell-based; conditions: EC50 hGLP-1 R, Table 7; cAMP formation
T1 construct: expressed in transfected cells; host or cells: HEK-293
T1 sequence (P43220 24-463): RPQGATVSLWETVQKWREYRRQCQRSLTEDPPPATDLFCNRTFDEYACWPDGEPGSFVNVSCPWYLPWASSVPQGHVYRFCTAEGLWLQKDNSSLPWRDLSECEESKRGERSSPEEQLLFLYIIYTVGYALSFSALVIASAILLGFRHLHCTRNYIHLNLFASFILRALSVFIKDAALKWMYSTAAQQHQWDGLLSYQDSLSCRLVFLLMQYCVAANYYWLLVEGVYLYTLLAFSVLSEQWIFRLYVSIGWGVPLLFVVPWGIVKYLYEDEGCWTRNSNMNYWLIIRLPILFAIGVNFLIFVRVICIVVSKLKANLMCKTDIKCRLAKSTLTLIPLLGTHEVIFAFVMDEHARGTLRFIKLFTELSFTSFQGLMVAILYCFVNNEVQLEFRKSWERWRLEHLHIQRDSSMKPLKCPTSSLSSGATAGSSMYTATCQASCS
Procedure: cAMP content of cells was determined using a kit from Cisbio Corp. (cat. no. 62AM4PEC) based on HTRF (Homogenous Time Resolved Fluorescence). For preparation, cells were split into T175 culture flasks and grown overnight to near confluency in medium (DMEM/10% FBS). Medium was then removed and cells washed with PBS lacking calcium and magnesium, followed by proteinase treatment with accutase (Sigma-Aldrich cat. no. A6964). Detached cells were washed and resuspended in assay buffer (1×HBSS; 20 mM HEPES, 0.1% BSA, 2 mM IBMX) and cellular density determined. They were then diluted to 400000 cells/ml and 25 μl-aliquots dispensed into the wells of 96-well plates. For measurement, 25 μl of test compound in assay buffer was added to the wells, followed by incubation for 30 minutes at room temperature.

female NMRI-mice [5] = assay: Gastric emptying and intestinal passage in female NMRI-mice; assay type: in vivo
Procedure: Female NMRI-mice of a body weight between 20 and 30 g were used. Mice were adapted to housing conditions for at least one week.
Mice were overnight fasted, while water remained available all the time. On the study day, mice were weighed, single-caged and allowed access to 500 mg of feed for 30 min, while water was removed. At the end of the 30 min feeding period, remaining feed was removed and weighed. Then, the test compound/reference compound or its vehicle in the control group was administered subcutaneously. 60 min later, to allow the compound to reach relevant plasma exposure, a coloured, non-caloric bolus was instilled via gavage into the stomach. After another 30 min, the animals were sacrificed and the stomach and the small intestine prepared. The filled stomach was weighed, emptied, carefully cleaned and dried and reweighed. The stomach content, calculated as weight of filled subtracted by the weight of emptied stomach, indicated the degree of gastric emptying. The small intestine was straightened without force and measured in length. Then the distance from the gastric beginning of the gut to the tip of the farthest travelled intestinal content bolus was measured. The intestinal passage was given as ratio in percent of the latter distance and the total length of the small intestine.
Statistical analyses were performed with Everstat 6.0 by 1-way-ANOVA, followed by Dunnett's as post-hoc test. Dunnett's Test was applied to compare versus vehicle control. Differences were considered statistically significant at the p<0.05 level.
30 min later, the assessment of stomach contents and intestinal passage was done (FIG. 8).

[6] = 10 μg/kg s.c. once daily, p<0.05

CCCCCCCCCCCCCCCCCC(=O)N[C@@H](CCC(=O)NCCCC[C@H](NC(=O)[C@H](CCC(N)=O)NC(=O)[C@@H](NC(=O)[C@H](CO)NC(=O)[C@H](CC(C)C)NC(=O)[C@H](CC(=O)O)NC(=O)[C@H](CO)NC(=O)[C@@H](NC(=O)[C@H](Cc1ccccc1)NC(=O)[C@@H](NC(=O)CNC(=O)[C@H](CCC(=O)O)NC(=O)C(C)(C)NC(=O)[C@@H](N)Cc1ccc(O)cc1)[C@@H](C)O)[C@@H](C)O)[C@@H](C)CC)C(=O)N[C@@H](CCC(=O)O)C(=O)N[C@@H](CCC(=O)O)C(=O)N[C@@H](CCC(=O)O)C(=O)N[C@@H](C)C(=O)N[C@H](C(=O)N[C@@H](CCCNC(=N)N)C(=O)N[C@@H](CC(C)C)C(=O)N[C@@H](Cc1ccccc1)C(=O)N[C@H](C(=O)N[C@@H](CCC(=O)O)C(=O)N[C@@H](Cc1c[nH]c2ccccc12)C(=O)N[C@@H](CC(C)C)C(=O)N[C@@H](CCCCN)C(=O)N[C@@H](C)C(=O)NCC(=O)NCC(=O)N1CCC[C@H]1C(=O)N[C@@H](CO)C(=O)N[C@@H](CO)C(=O)NCC(=O)N[C@@H](C)C(=O)N1CCC[C@H]1C(=O)N1CCC[C@H]1C(=O)N1CCC[C@H]1C(=O)N[C@@H](CO)C(N)=O)[C@@H](C)CC)C(C)C)C(=O)O [SEQ ID NO: 10, Y-Aib-E-G-T-F-T-S-D-L-S-I-Q-K(γE-x70)-EEEAVRLFIEWLKAGGPSSGAPPPS-NH2] (H-Y[Aib]EGTFTSDLSIQK([γGlu-Stearoyl])EEEAVRLFIEWLKAGGPSSGAPPPS-NH2)
metabolised at 2 h, 2 μM (neprilysin): 0% | metabolised at 2 h, 2 μM (α-chymotrypsin): 48% | non-fasted glucose compared to vehicle control ([1]; 10 μg/kg s.c. once daily): tended to reduce non-fasted glucose | HbA1c compared to vehicle control [1, 6]: prevented an increase of HbA1c in a statistical significant manner | reduction of AUC under the glucose curve compared to vehicle control [1, 6]: reached statistical significance | oral glucose tolerance ([1]; 3 and 10 μg/kg s.c. once daily): improved oral glucose tolerance | Cmax (in vivo): 588 ng/mL | half-life (in vivo): 20.1 h | decrease of body weight, relative change from baseline ([2]; 3 μg/kg s.c. once daily): 8.6% | Overall weight change ([2]; 3 μg/kg s.c. once daily): -3.6 ± 1.0 g | decrease of body weight, relative change from baseline ([2]; 10 μg/kg s.c. once daily): 14.3% | Overall weight change ([2]; 10 μg/kg s.c. once daily): -5.5 ± 0.8 g | reduction of feed intake after 22 hours (female NMRI-mice [3]; 3 μg/kg s.c., not significant, p=0.78): 19% | reduction of feed intake after 22 hours (female NMRI-mice [3]; 10 μg/kg s.c., p=0.049): 34% | EC50 [4]: 12.5 pM | increase of remaining gastric contents (female NMRI-mice [5]; 1 μg/kg s.c.): 1% | reduction of intestinal passage (female NMRI-mice [5]; 1 μg/kg s.c.): 28% | increase of remaining gastric contents (female NMRI-mice [5]; 10 μg/kg s.c.): 28% | reduction of intestinal passage (female NMRI-mice [5]; 10 μg/kg s.c.): 58% | increase of remaining gastric contents (female NMRI-mice [5]; 100 μg/kg s.c.): 68% | reduction of intestinal passage (female NMRI-mice [5]; 100 μg/kg s.c.): 64%
